Our source for the inhibition, Ki and melting point values is paper PMC9897768, “Discovery of new 6-ureido/amidocoumarins as highly potent and selective inhibitors for the tumour-relevant carbonic anhydrases IX and XII” (Journal of Enzyme Inhibition and Medicinal Chemistry, 2023).

The structures appear in SMILES notation.

The subject of one data set is HCT-116 cells. The data set can be described thus: MTT antiproliferative assay, HCT-116. It is filed as cell-based, human. The following applies: Homo sapiens, mean ± SEM of three experiments; for inhibition at 10 µM: HCT-116, HCT116, 10 µM, read-out: % Growth inhibition HCT116 10 µM; for inhibition at 100 µM: HCT-116, HCT116, 100 µM, read-out: % Growth inhibition HCT116 100 µM. The procedure:
(§1) Encouraged by the favourable selectivity profile of ureidocoumarins 5a–p and amidocoumarins 7a–c towards hCA IX and hCA XII, they were further examined for their prospective antiproliferative activity against human colorectal (HCT-116) and breast (MCF-7) cancer cell lines, adopting the MTT assay.
(§2) The evaluation of anticancer activity of the target compounds was conducted by MTT assay adopting the literature procedure.
(Tetrazolium dyes change colour on reduction, which living cells bring about.)

The target in a further data set is hCA I (Homo sapiens, UniProt P00915). Nature of the data set: stopped-flow CO2 hydrase assay, hCA I. The data set is classed as biochemical. The settings on record: incubation time 6 h, mean of three experiments. On the procedure: (§3) The target coumarins 5a–p and 7a–c were examined for their CA inhibitory actions towards the ubiquitous CA I and II (cytosolic) as well as the tumour-associated CA IX and XII isozymes by the use of a stopped-flow CO2 hydrase assay, using acetazolamide (AZA) as a reference compound.
(§4) The experimental procedures utilised for CA inhibitory assay of the target compounds were carried out as described earlier, and presented in the Supplementary Materials.

The next data set addresses hCA IX (Homo sapiens, UniProt Q16790). The data set can be described thus: stopped-flow CO2 hydrase assay, hCA IX. The data set is classed as biochemical. The following applies: incubation time 6 h, mean of three experiments. The procedure: as §3, §4
Another data set relates to MCF-7 cells. Nature of the data set: MTT antiproliferative assay, MCF-7. The data set is classed as cell-based, human. The settings on record: Homo sapiens, mean ± SEM of three experiments; for inhibition at 10 µM: MCF7, MCF7, 10 µM, read-out: % Growth inhibition MCF7 10 µM; for inhibition at 100 µM: MCF7, MCF7, 100 µM, read-out: % Growth inhibition MCF7 100 µM. The procedure: as §1, §2

A further data set has as its target hCA II (Homo sapiens, UniProt P00918). The data set can be described thus: stopped-flow CO2 hydrase assay, hCA II. The following applies: incubation time 6 h, mean of three experiments. The data set is classed as biochemical. On the procedure:
as §3, §4

Another data set addresses hCA XII (Homo sapiens, UniProt O43570). Nature of the data set: stopped-flow CO2 hydrase assay, hCA XII. It is filed as biochemical. The settings on record: incubation time 6 h, mean of three experiments. The procedure: as §3, §4

hCA I, sequence (P00915 whole entry): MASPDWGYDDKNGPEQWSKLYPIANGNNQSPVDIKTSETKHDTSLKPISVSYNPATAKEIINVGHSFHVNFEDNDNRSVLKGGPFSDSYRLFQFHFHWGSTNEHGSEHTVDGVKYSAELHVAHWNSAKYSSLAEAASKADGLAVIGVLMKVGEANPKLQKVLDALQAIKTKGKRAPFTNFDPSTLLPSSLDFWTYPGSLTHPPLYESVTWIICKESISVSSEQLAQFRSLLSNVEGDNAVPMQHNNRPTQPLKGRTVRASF
hCA XII, sequence (O43570 25-354): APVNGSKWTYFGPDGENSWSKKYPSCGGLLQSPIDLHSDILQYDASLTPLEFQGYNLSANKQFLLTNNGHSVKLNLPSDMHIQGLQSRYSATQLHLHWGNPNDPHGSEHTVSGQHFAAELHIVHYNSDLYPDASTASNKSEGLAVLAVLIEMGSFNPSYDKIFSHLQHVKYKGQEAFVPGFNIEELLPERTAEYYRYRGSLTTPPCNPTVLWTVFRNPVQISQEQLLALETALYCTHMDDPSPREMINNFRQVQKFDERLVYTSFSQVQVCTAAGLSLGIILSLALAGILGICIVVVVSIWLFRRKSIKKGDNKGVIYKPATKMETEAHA

Usually inhibition stands for the share of the control response that was lost under treatment. The Ki is the dissociation constant of the complex between target and ligand, obtained from inhibition or displacement. The low end stands for higher affinity, the high end for lower affinity. A word on the melting point: it is the temperature, or range, at which the solid turns liquid. `O=C(Nc1ccc2oc(=O)ccc2c1)c1ccc(Cl)c(C(F)(F)F)c1` [Compound 7a, 4-Chloro-N-(2-oxo-2H-chromen-6-yl)-3-(trifluoromethyl)benzamide] showed a melting point of 272 to 273 °C. Besides, in the data set with HCT-116 cells, the inhibition at 10 µM amounted to 14 ± 2.4% and the inhibition at 100 µM came out at 42.2 ± 2.5%. Besides, at hCA I, the Ki is above 100000 nM. Besides, the Ki on hCA IX is 82.4 nM. Moreover, in the data set on MCF-7 cells, the inhibition at 10 µM stood at 9.9 ± 3.4% and the inhibition at 100 µM was 19 ± 2.1%. The Ki on hCA II is above 100000 nM. At hCA XII, this molecule had a Ki of 42.8 nM.

`O=C(Nc1ccc2oc(=O)ccc2c1)c1cc(C(F)(F)F)cc(C(F)(F)F)c1` [Compound 7b, N-(2-Oxo-2H-chromen-6-yl)-3,5-bis(trifluoromethyl)benzamide] returned a melting point of 240 to 241 °C. For the same molecule, in the data set with HCT-116 cells, the inhibition at 10 µM stood at 19.6 ± 2.4% and the inhibition at 100 µM came to 76 ± 2.5%. Moreover, the Ki on hCA I was above 100000 nM. The Ki at hCA IX was found to be 55.6 nM. Further, in the data set on MCF-7 cells, the inhibition at 10 µM is 11.3 ± 4% and the inhibition at 100 µM amounted to 62.9 ± 6.4%. The molecule also yielded an inhibition constant (Ki) on hCA II above 100000 nM. In addition, the Ki on hCA XII worked out at 37.5 nM.

As for `O=C(Nc1ccc2oc(=O)ccc2c1)c1cc(F)cc(F)c1` [Compound 7c, 3,5-Difluoro-N-(2-oxo-2H-chromen-6-yl)benzamide], the melting point is 301 to 303 °C. In addition, in the data set with HCT-116 cells, the inhibition at 10 µM turned out to be 21.8 ± 3% and the inhibition at 100 µM worked out at 52 ± 5.1%. This molecule also yielded a Ki on hCA I above 100000 nM. Further, on hCA IX, the inhibition constant Ki stood at 61 nM. Further, in the data set with MCF-7 cells, the inhibition at 10 µM was 21.1 ± 3.3% and the inhibition at 100 µM stood at 21.4 ± 4.7%. On hCA II, this molecule had a Ki above 100000 nM. Also, at hCA XII, the affinity corresponds to a Ki of 40.5 nM.
